Values quoted from earlier work in patent US6299888A, “Azelastine hydrochloride-containing percutaneous preparation having good percutaneous absorbability and reduced skin irritation” (Teikoku Seiyaku Kabushiki Kaisha, priority 1997, dated 2001).
Counter-ions that a name gives are not always drawn.

Q: For CN1CCCC(n2nc(Cc3ccc(Cl)cc3)c3ccccc3c2=O)CC1 (stereo not shown) [azelastine hydrochloride], which “dissociation constant (pKa)” value is on record?
A: about 9.5
